Experimental data published in ChEMBL document CHEMBL1201862, “PubChem BioAssay data set” (2004).
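These data come from cells grown in 96-well plates and exposed to compound for 48 hours at five concentrations. GI50 marks 50% less growth.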 Calls of active or inactive are those of the source. No stated cut-off is given here; in the data, active = GI50 up to about 1.1 µM and inactive = higher.

Tests used:
Experiment in all cases: NCI-60 cell line screen, 48 h
[1] = test system: 786-0
[2] = test system: A549
[3] = test system: ACHN
[4] = test system: BT-549
[5] = test system: CAKI-1
[6] = test system: CCRF-CEM
[7] = test system: COLO 205
[8] = test system: DU-145
[9] = test system: EKVX
[10] = test system: HCC 2998
[11] = test system: HCT-116
[12] = test system: HCT-15
[13] = test system: HL-60
[14] = test system: HOP-62
[15] = test system: HOP-92
[16] = test system: HT-29
[17] = test system: Hs-578T
[18] = test system: IGROV-1
[19] = test system: K562
[20] = test system: KM12
[21] = test system: LOX IMVI
[22] = test system: M14
[23] = test system: MCF7
[24] = test system: MDA-MB-231
[25] = test system: MDA-MB-435
[26] = test system: MDA-N
[27] = test system: MOLT-4
[28] = test system: Malme-3M
[29] = test system: NCI-H226
[30] = test system: NCI-H23
[31] = test system: NCI-H460
[32] = test system: NCI-H522
[33] = test system: NCI/ADR-RES
[34] = test system: OVCAR-3
[35] = test system: OVCAR-4
[36] = test system: OVCAR-5
[37] = test system: OVCAR-8
[38] = test system: PC-3
[39] = test system: RPMI-8226
[40] = test system: RXF 393
[41] = test system: SF-268
[42] = test system: SF-295
[43] = test system: SF-539
[44] = test system: SK-MEL-28
[45] = test system: SK-MEL-2
[46] = test system: SK-MEL-5
[47] = test system: SK-OV-3
[48] = test system: SN12C
[49] = test system: SNB-19
[50] = test system: SNB-75
[51] = test system: SR
[52] = test system: SW-620
[53] = test system: T47D
[54] = test system: TK-10
[55] = test system: U-251
[56] = test system: UACC-257
[57] = test system: UACC-62
[58] = test system: UO-31

c1ccc2c(c1)ccn2CCc1c[nH]c2ccccc12
GI50 [1]: > 10 µM (inactive)
GI50 [2]: > 10 µM (inactive)
GI50 [3]: > 10 µM (inactive)
GI50 [4]: > 10 µM (inactive)
GI50 [5]: > 10 µM (inactive)
GI50 [6]: > 10 µM (inactive)
GI50 [7]: > 10 µM (inactive)
GI50 [8]: > 10 µM (inactive)
GI50 [9]: > 10 µM (inactive)
GI50 [10]: > 10 µM (inactive)
GI50 [11]: > 10 µM (inactive)
GI50 [12]: > 10 µM
GI50 [13]: > 10 µM (inactive)
GI50 [14]: > 10 µM (inactive)
GI50 [15]: > 10 µM (inactive)
GI50 [16]: > 10 µM (inactive)
GI50 [17]: > 10 µM (inactive)
GI50 [18]: > 10 µM (inactive)
GI50 [19]: > 10 µM (inactive)
GI50 [20]: > 10 µM (inactive)
GI50 [21]: > 10 µM (inactive)
GI50 [22]: > 10 µM (inactive)
GI50 [23]: > 10 µM (inactive)
GI50 [24]: > 10 µM (inactive)
GI50 [25]: > 10 µM (inactive)
GI50 [26]: > 10 µM (inactive)
GI50 [27]: > 10 µM (inactive)
GI50 [28]: > 10 µM (inactive)
GI50 [29]: 8.07 µM (inactive)
GI50 [30]: > 10 µM (inactive)
GI50 [31]: > 10 µM (inactive)
GI50 [32]: > 10 µM (inactive)
GI50 [33]: > 10 µM (inactive)
GI50 [34]: > 10 µM (inactive)
GI50 [35]: > 10 µM (inactive)
GI50 [36]: > 10 µM (inactive)
GI50 [37]: > 10 µM (inactive)
GI50 [38]: > 10 µM (inactive)
GI50 [39]: > 10 µM (inactive)
GI50 [40]: 9.31 µM (inactive)
GI50 [41]: > 10 µM (inactive)
GI50 [42]: > 10 µM (inactive)
GI50 [43]: > 10 µM (inactive)
GI50 [44]: > 10 µM (inactive)
GI50 [45]: > 10 µM (inactive)
GI50 [46]: > 10 µM (inactive)
GI50 [47]: > 10 µM (inactive)
GI50 [48]: > 10 µM (inactive)
GI50 [49]: > 10 µM (inactive)
GI50 [50]: > 10 µM (inactive)
GI50 [51]: > 10 µM (inactive)
GI50 [52]: > 10 µM (inactive)
GI50 [53]: > 10 µM (inactive)
GI50 [54]: > 10 µM (inactive)
GI50 [55]: > 10 µM (inactive)
GI50 [56]: > 10 µM (inactive)
GI50 [57]: > 10 µM (inactive)
GI50 [58]: 9.86 µM (inactive)
